According to US6710080B2, “Substituted 2-dialkylaminoalkylbiphenyl derivatives” (Gruenenthal GmbH, priority 1999, dated 2004):
Where a name gives a salt, the structure may show the parent alone.

Legend:
[1] = system: phenylquinone-induced writhing in mice; experiment: Writhing test in mice; format: in vivo; conditions: Mus musculus, male NMRI mice; for inhibition at 10 mg/kg: 10 mg/kg intravenously 10 minutes before phenylquinone i.p., writhing counted 5-20 minutes after phenylquinone, read-out: % Inhibition of the writhing reaction with 10 mg/kg intravenously; for ED50: iv, intravenously, regression analysis of dose-dependent decrease in writhing reactions
Description: The analgesic activity was investigated on phenylquinone-induced writhing in mice (modified by I. C. Hendershot, J. Forsaith, J. Pharmacol. Exp. Ther. 125, 237-240 (1959)). Male NMRI mice weighing 25-30 g were used for this. Groups of 10 animals per dose of substance received 0.3 ml/mouse of a 0.02% aqueous solution of phenylquinone (phenylbenzoquinone, Sigma, Deisenhofen; preparation of the solution with addition of 5% ethanol and storage in a water bath at 45° C.) as an intraperitoneal administration 10 minutes after intravenous administration of the test substances. The animals were placed individually in observation cages. The number of pain-induced extension movements (so-called writhing reactions=straightening of the body with stretching out of the hind extremities) 5-20 minutes after the administration of phenylquinone was counted by means of a push-button counter. Animals which receive only physiological saline solution were also run as a control. All the substances were tested in the standard dosage of 10 mg/kg. The percentage inhibition (% inhibition) of the writhing reaction by a substance was calculated in accordance with the following equation: [formula]
For some substances, the ED50 values with 95% confidence limits of the writhing reaction were calculated from the dose-dependent decrease in the writhing reactions compared with phenylquinone control groups investigated in parallel by means of regression analysis (evaluation program of Martens EDV Service, Eckental Germany).

SMILES | inhibition at 10 mg/kg [1] [%] | ED50 [1] [mg/kg] | melting point [°C]
COc1ccc(-c2ccccc2CCN(C)C)cc1OC [Example 33, [2-(3′,4′-Dimethoxybiphenyl-2-yl)ethyl]dimethylamine hydrochloride] | 89 |  | 
CN(C)Cc1ccccc1-c1cccc(F)c1F.Cl [Example 29, (2′,3′-Difluorobiphenyl-2-ylmethyl)dimethylamine hydrochloride] | 83 | 5.71 | 
CN(C)Cc1ccccc1-c1cc(Cl)c(N)c(Cl)c1 [Example 43, 3,5-Dichloro-2′-dimethylaminomethyl-biphenyl-4-ylamine hydrochloride] | 99 |  | 
CN(C)Cc1ccccc1-c1cc(OC(F)(F)F)ccc1N [Example 41, 2′-Dimethylaminomethyl-5-trifluoromethoxybiphenyl-2-ylamine dihydrochloride] | 56 |  | 
CN(C)Cc1ccccc1-c1ccccc1.Cl [Example 15, biphenyl-2-ylmethyldimethylamine hydrochloride] | 52 | 3.66 | 
CN(C)CCc1ccccc1-c1cccc(O)c1.Cl [Example 24, 2′-(2-Dimethylaminoethyl)biphenyl-3-ol hydrochloride] | 99 | 2.27 | 
COc1cc(-c2ccccc2CN(C)C)ccc1Cl.Cl [Example 21, (4′-Chloro-3′-methoxybiphenyl-2-ylmethyl)dimethylamine hydrochloride] | 53 | 6.78 | 
CN(C)Cc1ccccc1-c1ccc(N)c(O)c1 [Example 38, 4-Amino-2′-dimethylaminomethylbiphenyl-3-ol dihydrochloride] | 65 |  | 
CC(=O)Nc1ccc(-c2ccccc2CN(C)C)cc1OC(F)(F)F.Cl [Example 22, N-(2′-Dimethylaminomethyl-3-trifluoromethoxybiphenyl-4-yl)acetamide hydrochloride] | 76 | 6.05 | 182
CN(C)Cc1ccccc1-c1cc(F)cc(F)c1 [Example 39, (3′,5′-Difluorobiphenyl-2-ylmethyl)dimethylamine hydrochloride] | 80 |  | 
CN(C)Cc1ccccc1-c1ccc(Cl)cc1Cl [Example 28, (2′,4′-Dichlorobiphenyl-2-ylmethyl)dimethylamine hydrochloride] | 90 |  | 
CN(C)Cc1ccccc1-c1ccc(F)c(F)c1 [Example 19, (3′,4′-Difluorobiphenyl-2-ylmethyl)dimethylamine hydrochloride] | 86 |  | 
COc1ccc(OC)c(-c2ccccc2CN(C)C)c1 [Example 40, (2′,5′-Dimethoxybiphenyl-2-ylmethyl)dimethylamine hydrochloride] | 57 |  | 
CN(C)Cc1ccccc1-c1cccc(C=O)c1.Cl [Example 14, 2′-Dimethylaminomethylbiphenyl-3-carbaldehyde hydrochloride] | 100 | 2.28 | 
CN(C)Cc1ccccc1-c1cc(Cl)cc(Cl)c1 [Example 17, (3′,5′-Dichlorobiphenyl-2-ylmethyl)dimethylamine hydrochloride] | 90 |  | 
CN(C)CCc1ccccc1-c1ccc(Cl)c(O)c1 [Example 36, 4-Chloro-2′-(2-dimethylaminoethyl)biphenyl-3-ol hydrochloride] | 93 |  | 
COc1cc(-c2ccccc2CCN(C)C)ccc1Cl [Example 35, [2-(4′-Chloro-3′-methoxybiphenyl-2-yl)ethyl]dimethylamine hydrochloride] | 88 |  | 
CC(=O)Nc1ccc(OC(F)(F)F)cc1-c1ccccc1CN(C)C [Example 42, N-(2′-Dimethylaminomethyl-5-trifluoromethoxybiphenyl-2-yl)acetamide hydrochloride] | 44 |  | 
CC(C)Oc1cccc(-c2ccccc2CN(C)C)c1 [Example 23, (3′-Isopropoxybiphenyl-2-ylmethyl)dimethylamine hydrochloride] | 97 |  | 
CN(C)Cc1ccccc1-c1ccc(Cl)c(Cl)c1.Cl [Example 16, (3′,4′-Dichlorobiphenyl-2-ylmethyl)dimethylamine hydrochloride] | 89 | 4.59 | 
CN(C)Cc1ccccc1-c1cc(F)ccc1F [Example 30, (2′,5′-Difluorobiphenyl-2-ylmethyl)dimethylamine hydrochloride] | 89 |  | 
CN(C)Cc1ccccc1-c1ccc2[nH]ccc2c1 [Example 26, [2-(1H-Indol-5-yl)benzyl]dimethylamine] | 100 | 0.75 | 

SMILES | inhibition at 10 mg/kg [1] [%] | ED50 [1] [mg/kg] | melting point [°C]
Cc1cc2c(-c3ccccc3CN(C)C)cccc2o1 [Example 11, Dimethyl-[2-(2-methylbenzofuran-4-yl)benzyl]amine hydrochloride] | 74 |  | 
CN(C)Cc1ccccc1-c1cccc([N+](=O)[O-])c1 [Example 37, Dimethyl-(3′-nitrobiphenyl-2-ylmethyl)amine hydrochloride] | 60 |  | 
COc1cccc(-c2ccccc2CCN(C)C)c1.Cl [Example 10, (3′-Methoxybiphenyl-2-ylethyl)dimethylamine hydrochloride] | 100 | 1.7 | 
CN(C)Cc1ccccc1-c1ccc2c(c1)OCO2 [Example 31, (2-Benzo [1,3]dioxol-5-ylbenzyl)dimethylamine hydrochloride] | 94 |  | 
COc1ccccc1-c1ccccc1CN(C)C.Cl [Example 4, (2′-Methoxybiphenyl-2-ylmethyl)dimethylamine hydrochloride] | 75 | 3.95 | 
CN(C)Cc1ccccc1-c1cccc(Cl)c1.Cl [Example 5, (3′-Chlorobiphenyl-2-ylmethyl)dimethylamine hydrochloride] | 68 | 4.31 | 
CN(C)Cc1ccccc1-c1ccc(Cl)cc1.Cl [Example 2, (4′-Chlorobiphenyl-2-ylmethyl)dimethylamine hydrochloride] | 89 | 4.55 | 
CN(C)Cc1ccccc1-c1ccc([N+](=O)[O-])c(C(F)(F)F)c1 [Example 18, Dimethyl-(4′-nitro-3′-trifluoromethylbiphenyl-2-ylmethyl)amine hydrochloride] | 83 |  | 
CN(C)Cc1ccccc1-c1ccc(F)c(Cl)c1.Cl [Example 9, (3′-Chloro-4′-fluorobiphenyl-2-ylmethyl)dimethylamine hydrochloride] | 89 | 2.32 | 
CN(C)Cc1ccccc1-c1ccc(F)c(C(F)(F)F)c1.Cl [Example 20, (4′-Fluoro-3′-trifluoromethylbiphenyl-2-ylmethyl)dimethyl-amine hydrochloride] | 83 | 4.99 | 
CN(C)Cc1ccccc1-c1ccccc1F.Cl [Example 6, (2′-Fluorobiphenyl-2-ylmethyl)dimethylamine hydrochloride] | 88 | 4.26 | 
COc1cccc(-c2ccccc2CN(C)C)c1 [Example 1, (3′-Methoxybiphenyl-2-ylmethyl)dimethylamine hydrochloride] | 53 |  | 
CN(C)Cc1ccccc1-c1ccc(F)cc1.Cl [Example 8, (4′-Fluorobiphenyl-2-ylmethyl)dimethylamine hydrochloride] | 67 | 7.15 | 
CC(=O)c1cccc(-c2ccccc2CCN(C)C)c1 [Example 32, 1-[2′-(2-Dimethylaminoethyl)biphenyl-3-yl]ethanone hydrochloride] | 98 |  | 
CN(C)Cc1ccccc1-c1ccc(Cl)c(O)c1 [Example 25, 4-Chloro-2′-dimethylaminomethylbiphenyl-3-ol hydrochloride] | 74 |  | 
CN(C)Cc1ccccc1-c1ccc(S(C)(=O)=O)cc1 [Example 27, (4′-Methanesulfonylbiphenyl-2-ylmethyl)dimethylamine hydrochloride] | 89 |  | 
CN(C)Cc1ccccc1-c1cccc(C(F)F)c1.Cl [Example 13, (3′-Difluoromethylbiphenyl-2-ylmethyl)dimethylamine hydrochloride] | 81 | 5.3 | 
CN(C)Cc1ccccc1-c1ccccc1C=O.Cl [Example 12, 2′-Dimethylaminomethylbiphenyl-2-carbaldehyde hydrochloride] | 89 | 1.74 | 
CN(C)Cc1ccccc1-c1cccc(F)c1.Cl [Example 7, (3′-Fluorobiphenyl-2-ylmethyl)dimethylamine hydrochloride] | 90 | 2.55 | 
CN(C)Cc1ccccc1-c1cccc(O)c1.Cl [Example 3, 2′-Dimethylaminomethylbiphenyl-3-ol hydrochloride] | 100 | 0.24 | 
CC(C)Oc1cccc(-c2ccccc2CCN(C)C)c1 [Example 34, [2-(3′-Isopropoxybiphenyl-2-yl)ethyl]dimethylamine hydrochloride] | 80 |  | 
